According to patent US8071575B2, “Methods and compounds for the targeted delivery of agents to bone for interaction therewith” (priority 2007, dated 2011):
Entries after “also recorded” stand apart in the source; their conditions may differ.

Experiments:
OVX rats [1] = assay: RatLaps ELISA for C-telopeptide fragments of collagen type I (CTX-I) in serum; type: in vivo, Sprague-Dawley female rats; conditions: Formula 125 at 1000 μg/kg, 17-ethinyl estradiol equimolar, alendronate 1.6 mg/kg
OVX rats [2] = assay: Femoral density via Archimedes' Principle (whole bone); type: in vivo, Sprague-Dawley female rats; conditions: for whole bone density and regional bone density: present-tense example, no data or figure
Method: (§1) Animals. Six month old, bilaterally ovariectomized (OVX) or sham operated Sprague-Dawley female rats (Harlan Laboratories, Indianapolis, Ind.) were maintained at the University of Louisville Research Resources Center at 22° C. with a 12-h light/dark cycle and ad libitum access to tap water and rodent chow (Purina Laboratory Rodent Diet 5001). All animal procedures were approved by the Institutional Animal Care and Use Committee, which is certified by the American Association for Accreditation of Laboratory Animal Care.
(§2) In vivo experiments were conducted in order to investigate the efficacy of compounds of the presently-disclosed subject matter. In all of the experiments, OVX and sham operated rats were randomly divided into groups of 5-7 animals. In all of the studies experimental groups included: i) Sham-operated control (euthanized six weeks post surgery as a pretreatment control), ii) OVX control (euthanized six weeks post surgery as a pretreatment control), iii) Sham control receiving vehicle, iv) OVX control receiving vehicle, v) OVX receiving 17-ethinyl estradiol (equimolar concentration with a selected test compound), vi) OVX receiving alendronate (1.6 mg/kg), and vii) OVX receiving parathyroid hormone 1-34 (PTH) ([…]). 17-ethinyl estradiol (17 EE) is a free estrogenic agent known to be orally active, and can serve as an example of an anti-catabolic agent. Alendronate (Alen) is a bisphosphonate that is currently used to treat osteoporosis (e.g., Fosamax®, Merck & Co., Inc,), and can serve as an example of an anti-catabolic agent. Parathyroid hormone 1-34 (PTH) is an agent that can serve as an example of an anabolic agent. All compounds and vehicle (1% DMSO in corn oil) were administered three times per week orally by gavage except for PTH which was administered via a subcutaneous injection in a volume of 0.5 ml/kg body mass thrice per week. Compound administration was initiated 6 weeks following surgery and lasted for 6 weeks (18 doses total).
(§3) Compounds of the presently-disclosed subject matter were orally administered to OVX rats at various doses. As indicated above all BTE's were administered three times per week for 6 weeks.
(§4) Following 6 weeks of treatment, blood was obtained from each animal via cardiac puncture following an overnight fast and animals were subsequently euthanized via carbon dioxide asphyxiation. Blood was centrifuged immediately and the obtained serum samples were aliquoted and stored at −70° C. prior to analysis. Uteri were removed and fresh weights were obtained. Uterine masses were normalized to body mass at the end of the experiment. The left and right femora and left and right tibiae were subsequently collected from each animal, cleaned of soft tissue, and stored in saline at 4° C. prior to analysis.
Femoral Density via Archimedes' Principle. Right femora were submerged in distilled water and fully hydrated under a vacuum for 1 hr. Subsequently, the mass of each hydrated femur was obtained in air and when submerged in water. Densities were determined using Archimedes' Principle according to the following formula: density=[mass of hydrated femur/(mass of hydrated femur−mass of hydrated femur submerged in water)]×density of distilled water at a given temperature (See Keenan, et al. Comparison of bone density measurement techniques: DXA and Archimedes' principle. J Bone Miner Res 1997; 12:1903-7.). The obtained density measurements were associated with whole bone.

OVX rats [3] = assay: Bone mechanical competence indentation test; type: in vivo, Sprague-Dawley female rats; conditions: for bone strength (indentation test): present-tense example, no data or figure
Method: as §1, §2, §3, §4
Bone Mechanical Competence Indentation Test. After sacrifice, the left tibiae were trimmed to expose the cancellous bone of the proximal tibial metaphysis and an indentation test was performed by advancing a flat-tipped cylindrical post (1.5 mm diameter) axially into the cut surface to measure the compressive strength of the cancellous bone structure.

OVX rats [4] = assay: Quantitative determination of lipid metabolism (total cholesterol, HDL, LDL) in rat serum; type: in vivo, Sprague-Dawley female rats
Method: as §1, §2, §4
Quantitative Determination of Lipid Metabolism (Total Cholesterol HDL, and LDL) in Rat Serum. Total cholesterol, high-density lipoprotein (HDL), and low-density lipoprotein (LDL) were quantitatively determined in the serum of rats in order to evaluate the extraosseous effects of estrogen treatment on lipid metabolism. Commercially available kits from Wako Diagnostics (Richmond, Va.) were used for the evaluations as recommended by the manufacturer.

OVX rats [5] = assay: Volume fraction, ex vivo micro-computed tomography of tibia; type: in vivo, Sprague-Dawley female rats; conditions: for volume fraction (BV/TV) of trabecular, cortical and whole bone tissue: present-tense example, no data or figure; for bone density from three-dimensional micro-CT images / trabecular volume fraction: OVX rats, oral 10, 100, or 1000 μg/kg; for trabecular volume fraction: ex vivo micro-CT
Method: as §1, §2, §3, §4
Volume Fraction—Ex vivo micro-computed tomography (μCT). Volume fraction is a representative value for the amount of bone that occupies a given volume or space. High resolution image data were collected using a customized micro-CT system (ACTIS 150/225 system, BIR Inc., Lincolnshire, Ill.). The metaphysis of each right tibia was scanned over a three millimeter range and three-dimensional images were reconstructed. Data were subsequently processed to reveal the volume fraction (BV/TV) occupied by trabecular (cancellous) bone tissue, cortical bone tissue, and whole bone tissue. The resulting data provides information regarding the density of whole bone, cortical bone, and trabecular bone.

OVX rats [6] = assay: Uterine mass and uterine mass to body weight ratio in OVX rats; type: in vivo, Sprague-Dawley female rats; conditions: for uterine mass: present-tense example, no data or figure
Method: as §1, §2, §3, §4
Uterine Mass and Body Weight. […] Uterine mass can be used to as a measure of estrogenic effect occurring in a tissue outside the bone in response to treatment with a test compound or composition. Generally, a lower uterine mass can be associated with a decreased risk of adverse side effects associated with the test compound or composition. A ratio of uterine mass to body weight can be used to correct for any increase in uterine size attributable to the relative size of the individual animal. Body weight and/or uterine mass also serve as an indirect measures of toxicity of a test compound.

ICR Swiss mice = assay: Stimulation of periosteal bone formation in a mouse calvarial injection model; type: in vivo; conditions: present-tense example, no data or figure
Method: Stimulation of Periosteal Bone Formation in a Mouse Calvarial Injection Model. The anabolic (bone formation) of compounds of the presently-disclosed subject matter are evaluated in the mouse calvarial injection model. Briefly, 4-week-old ICR Swiss mice are injected subcutaneously over the surface of the calvariae with compounds of the presently-disclosed subject matter at concentrations of 0, 1, 3, and 10 mg/kg/day for 5 days (twice a day). Microtubule inhibitor TN-16 (5 mg/kg/day for 2 days, twice a day) are used as a positive control. Mice are sacrificed two weeks after the injections are completed. Dissected calvarial samples are fixed in 10% phosphate-buffered formalin for 2 days, decalcified in 10% EDTA for 2 weeks and then embedded in paraffin. Histological sections are cut and stained with H&E and orange G. New woven bone formation (new bone area) is quantified by histomorphometry using the OsteoMeasure system (OsteoMetrics Inc., Atlanta, Ga.).

[7] = Hydroxyapatite (HA) Binding Assay; conditions: 10^−5 M analyte, 50 mM Tris-HCl pH 7.4, 1% DMSO; adjusted such that tetracycline = 100
Method: A Hydroxyapatite (HA) Binding Assay is used to determine whether compounds have an affinity for bone. Compounds of the presently-disclosed subject matter having a Bone Targeting Portion (RT) are studied using the HA Binding Assay. A 10^−3 M solution of each analyte was made in 100% dimethylsulfoxide (DMSO). A 100 fold dilution was then made to form a 10^−5 M solution in 50 mM Tris-HCl buffer, pH 7.4, 1% DMSO. Tetracycline was used as a reference analyte and approximately 50% was adsorbed to HA at the concentration of 10^−5 M. The HA slurry was 0.5 g/100 mL 50 mM Tris-HCl buffer, 1% DMSO.
For each analyte, two samples were prepared. For one sample, 1 mL of 10^−5 M analyte and 100 μL 50 mM Tris-HCl buffer, 1% DMSO was pipetted into a microcentrifuge tube. For the second sample, 1 mL of 10^−5 M analyte and 100 μL of the HA slurry was pipetted into a microcentrifuge tube. The samples were mixed gently by inversion for 4 minutes and then centrifuged at 12,000 g for 3 minutes to sediment the HA contained in those samples. The supernatant was transferred to another microcentrifuge tube.
An electronic spectral scan (ultraviolet-visible) from 220-520 nm was obtained for each analyte using a Varian Cary 300 Bio Scan. The blank was 50 mM Tris-HCl buffer, 1% DMSO. The wavelength of maximum absorbance (λmax) was determined, and the extinction coefficient (ε) was calculated using the Beer-Lambert Law.
The absorbance of the samples incubated with HA was measured at λmax, and the molar concentration of the analyte was then determined using the Beer-Lambert Law and the previously calculated extinction coefficient. The fraction adsorbed to HA for each sample was subsequently calculated.

OVX rats [8] = assay: Regional femoral density via Archimedes' Principle; type: in vivo, Sprague-Dawley female rats; conditions: oral 10, 100, or 1000 μg/kg, three times per week for 6 weeks
Method: as §1, §2, §3
Following 6 weeks of treatment, blood was obtained from each animal via cardiac puncture following an overnight fast and animals were subsequently euthanized via carbon dioxide asphyxiation. […]
Regional Femoral Density via Archimedes' Principle. […] Briefly, each femur was measured with a Cen-Tech Digital Caliper and a cut was made from each end at 20% of the length of the femur plus half the width of the blade. Subsequently, the bone marrow was washed out of the femoral diaphysis and the Archimedes density for each of the three femoral regions was determined as described above.

[9] = present-tense example, no data or figure

For `C#C[C@]1(O)CC[C@H]2[C@@H]3CCc4cc(O)ccc4[C@H]3CC[C@@]21C` [17-ethinyl estradiol], the “production of CTX-I (bone resorption marker) in serum” value (“production of CTX-I” for short) (OVX rats [1]) was “descrease the production of CTX-1 to sham levels”.

With `COc1ccc(NC(=O)COCCOCCNC(=O)CCCC(CO[N+](=O)[O-])O[N+](=O)[O-])c(O)c1C(N)=O` (stereo not drawn) [Formula 130] the “whole bone density and regional bone density” value (OVX rats [2]) was “increase bone density”, the “bone strength (indentation test)” value (OVX rats [3]) was “increase bone strength” and the “lipid metabolism (total cholesterol, HDL, LDL in serum)” value (“lipid metabolism” below) (OVX rats [4]; [9]) was “limited or no effect”. For the same compound, the “volume fraction (BV/TV) of trabecular, cortical and whole bone tissue” value (from here on “volume fraction (BV/TV) of trabecular”) (OVX rats [5]) was “increase bone density”, the uterine mass (OVX rats [6]) was “limited or no effect” and the “new bone area (calvarial injection model)” value (from here on “new bone area”) (ICR Swiss mice) was “increase new bone area”. The “Binding Index (binding to hydroxyapatite)” value (“Binding Index” below) [7] was 130.

For `COc1ccc(NC(=O)COCCOCCOCCNC(=O)CCO[C@@H]2CCC3C4CCc5cc(O)ccc5C4CCC32C)c(O)c1C(N)=O` (stereo partly drawn) [Formula 124], the “whole bone density (right femora)” value (OVX rats [2]; OVX rats, oral 10, 100, or 1000 μg/kg, three times per week for 6 weeks) was “in the same ranges as those animals receiving 17-ethinyl estradiol (17 EE), Alendronate (Alen), or Parathyroid hormone 1-34 (PTH)”, the “bone strength (tibial indentation test)” value (OVX rats [3]; OVX rats, oral 10, 100, or 1000 μg/kg) was “dose-responsive increase in bone strength, relative to the OVX animals” and the “regional bone density (left femur)” value (OVX rats [8]) was “in the same ranges as those animals receiving 17-ethinyl estradiol (17 EE), Alendronate (Alen), or Parathyroid hormone 1-34 (PTH)”. For the same compound, the “lipid metabolism” value (OVX rats [4]; rat, in vivo) was “limited or no effect”, the “bone density from three-dimensional micro-CT images” value (OVX rats [5]) was “increase in bone density” and the trabecular volume fraction (OVX rats [5]) was “in the same ranges as those animals receiving 17-ethinyl estradiol (17 EE), Alendronate (Alen), or Parathyroid hormone 1-34 (PTH)”. The “new bone area” value (ICR Swiss mice) was “increase new bone area” and the “Binding Index” value [7] was 100.

With `COc1ccc(NC(=O)COCCOCCNC(=O)COc2ccc(-c3coc4cc(O)cc(O)c4c3=O)cc2)c(O)c1C(N)=O` [Formula 128] the “whole bone density and regional bone density” value (OVX rats [2]) was “increase bone density”, the “bone strength (indentation test)” value (OVX rats [3]) was “increase bone strength” and the “lipid metabolism” value (OVX rats [4]; [9]) was “limited or no effect”. The “volume fraction (BV/TV) of trabecular” value (OVX rats [5]) was “increase bone density”, the uterine mass (OVX rats [6]) was “limited or no effect” and the “new bone area” value (ICR Swiss mice) was “increase new bone area”.

With `COc1ccc(NC(=O)CCC(=O)Nc2nnc(S(N)(=O)=O)s2)c(O)c1C(N)=O` [Formula 35] the “whole bone density and regional bone density” value (OVX rats [2]) was “increase bone density”, the “bone strength (indentation test)” value (OVX rats [3]) was “increase bone strength” and the “lipid metabolism” value (OVX rats [4]; [9]) was “limited or no effect”. The “volume fraction (BV/TV) of trabecular” value (OVX rats [5]) was “increase bone density”, the uterine mass (OVX rats [6]) was “limited or no effect” and the “new bone area” value (ICR Swiss mice) was “increase new bone area”. The “Binding Index” value [7] was 20.

With `NCCCC(O)(P(=O)(O)O)P(=O)(O)O` [alendronate] the “production of CTX-I” value (OVX rats [1]) was “descrease the production of CTX-1 to sham levels”.

With `CC12CCC3c4ccc(O)cc4CCC3C1CC[C@H]2OCCC(=O)NCCOCCOCC(=O)Nc1ccc(OCc2ccccc2)c(C(N)=O)c1O` (stereo partly drawn) [Formula 125] the “bone strength (indentation test)” value (OVX rats [3]) was “increase bone strength”, the “regional bone density (left femur)” value (OVX rats [8]) was “increased regional bone densities, as compared to the OVX animals; also recorded: increased regional bone densities, as compared to the Sham animals” and the “lipid metabolism” value (OVX rats [4]; rat, in vivo) was “limited or no effect”. The “bone density from three-dimensional micro-CT images” value (OVX rats [5]) was “increase in bone density”, the trabecular volume fraction (OVX rats [5]) was “increased, as compared to OVX animals” and the “ratio of uterine mass to body weight” value (OVX rats [6]; OVX rats, oral 10, 100, or 1000 μg/kg, compared to animals treated with 17-ethinyl estradiol) was “lower”. The “production of CTX-I” value (OVX rats [1]) was “do not inhibit production of CTX-I”, the “new bone area” value (ICR Swiss mice) was “increase new bone area” and the “Binding Index” value [7] was 160.
